For orientation: solubility means how much of the substance goes into solution per volume. Low values mean a poorly soluble substance, high ones a readily soluble substance.

Drawing on patent US20130012432A1, “Peptides for Treatment of Obesity” (Novo Nordisk A/S, priority 2010, published 2013), this text covers solubility for six compounds.

The nature of this data set: physchem. On the procedure: From a stock solution in vehicle, either H2O or 10 mM phosphate, containing 1 mg (as weighed) compound per ml, 8-11 aliquots are withdrawn and pH-adjusted individually with HCl/NaOH, to cover the whole pH range.

≈ marks a conversion by molar mass, not a printed value. Positions of bridges follow the written chain, without caps; N, C: chain ends. Non-standard residues stand in square brackets, D forms with d. Residues, ends and D or L forms follow the SMILES beside them. Groups on a side chain read outwards from the residue. *: point of attachment. Palmitoyl(16-(5-tetrazolyl)) = O=C(CCCCCCCCCCCCCCCc1nnn[nH]1)*; Lys(CH2CO2H)2 = N[C@@H](CCCCN(CC(=O)O)CC(=O)O)C(=O)O; X1 = O=C(O)CCCCCCCCCCCCCCCCC(=O)NCCOCCOCCN*; C17 diacid = O=C(O)CCCCCCCCCCCCCCCC(=O)*; C16 diacid = O=C(O)CCCCCCCCCCCCCCC(=O)*; Hyp = O=C(O)[C@@H]1C[C@@H](O)CN1; hCys = N[C@@H](CCS)C(=O)O; Orn = NCCC[C@H](N)C(=O)O; AEEA = NCCOCCOCC(=O)O

With `CC(=O)N[C@H]1CCCNC(=O)C[C@@H](C(=O)N2CCC[C@H]2C(=O)N2CCC[C@H]2C(=O)N[C@@H](CCCNC(=N)N)C(=O)N[C@@H](CCC(=O)O)C(=O)N[C@@H](CCCCN(CC(=O)O)CC(=O)O)C(=O)N[C@@H](CO)C(=O)N[C@@H](CO)C(=O)NCCOCCOCCNC(=O)CCCCCCCCCCCCCCCCC(=O)O)NC(=O)[C@H](Cc2c[nH]c3ccccc23)NC(=O)[C@H](CCCNC(=N)N)NC(=O)[C@@H](Cc2ccccc2)NC(=O)[C@H](Cc2c[nH]cn2)NC1=O` [Example 50, Ac-c[Orn-His-D-Phe-Arg-Trp-Asp]-Pro-Pro-Arg-Glu-Lys(biscarboxymethyl)-Ser-Ser-NH(2-{2-[2-(17-carboxyheptadecanoylamino)ethoxy]ethoxy}ethyl)] (Ac-[Orn]H[dF]RWDPPRE[Lys(CH2CO2H)2]SS-X1; lactam 1-6), the solubility reads like this: (pH 6.5, Solubility Conc.) 57 µM (≈ 127 µg/mL); (pH 7, Solubility Conc.) 92 µM (≈ 204 µg/mL); (pH 7.2, Solubility Conc.) 123 µM (≈ 273 µg/mL); (pH 7.4, Solubility Conc.) 156 µM (≈ 347 µg/mL); (pH 7.5, Solubility Conc.) 176 µM (≈ 391 µg/mL); (pH 7.7, Solubility Conc.) 197 µM (≈ 438 µg/mL). Also, the solubility runs as follows: (pH 7.8, Solubility Conc.) 212 µM (≈ 471 µg/mL); (pH 7.9, Solubility Conc.) 208 µM (≈ 462 µg/mL); (pH 8.2, Solubility Conc.) 212 µM (≈ 471 µg/mL).
Turning to `CC(=O)N[C@H]1CCCNC(=O)C[C@@H](C(=O)N2CCC[C@H]2C(=O)N2CCC[C@H]2C(=O)N[C@@H](Cc2c[nH]cn2)C(=O)N[C@@H](CCC(=O)O)C(=O)N[C@@H](CCCCN(CC(=O)O)CC(=O)O)C(=O)N[C@@H](CCCCNC(=O)COCCOCCNC(=O)CCCCCCCCCCCCCCC(=O)O)C(N)=O)NC(=O)[C@H](Cc2c[nH]c3ccccc23)NC(=O)[C@H](CCCNC(=N)N)NC(=O)[C@@H](Cc2ccccc2)NC(=O)[C@H](Cc2c[nH]cn2)NC1=O` [Example 51, Ac-c[Orn-His-D-Phe-Arg-Trp-Asp]-Pro-Pro-His-Glu-Lys(biscarboxymethyl)-Lys({2-[2-(15-carboxypentadecanoylamino)ethoxy]ethoxy}acetyl)-NH2] (Ac-[Orn]H[dF]RWDPPHE[Lys(CH2CO2H)2]K([AEEA-C16 diacid])-NH2; lactam 1-6), the solubility reads like this: (pH 5.3, Solubility Conc.) 204 µM (≈ 437 µg/mL); (pH 5.8, Solubility Conc.) 280 µM (≈ 600 µg/mL); (pH 6.1, Solubility Conc.) 359 µM (≈ 770 µg/mL); (pH 6.4, Solubility Conc.) 450 µM (≈ 965 µg/mL); (pH 6.7, Solubility Conc.) 460 µM (≈ 986 µg/mL); (pH 7, Solubility Conc.) 442 µM (≈ 947 µg/mL). Also, the solubility is, setting by setting: (pH 7.3, Solubility Conc.) 468 µM (≈ 1000 µg/mL); (pH 7.6, Solubility Conc.) 485 µM (≈ 1040 µg/mL); (pH 7.8, Solubility Conc.) 457 µM (≈ 980 µg/mL).
In the case of `CC(=O)N[C@H]1CCC(=O)NCCC[C@@H](C(=O)N2CCC[C@H]2C(=O)N2CCC[C@H]2C(=O)N[C@@H](CCCNC(=N)N)C(=O)N[C@@H](CC(=O)O)C(=O)N[C@@H](CCCCN(CC(=O)O)CC(=O)O)C(=O)N[C@@H](CCCCNC(=O)COCCOCCNC(=O)CCCCCCCCCCCCCCCc2nnn[nH]2)C(N)=O)NC(=O)[C@H](Cc2c[nH]c3ccccc23)NC(=O)[C@H](CCCNC(=N)N)NC(=O)[C@@H](Cc2ccccc2)NC(=O)[C@H](Cc2c[nH]cn2)NC1=O` [Example 54, Ac-c[Glu-His-D-Phe-Arg-Trp-Orn]-Pro-Pro-Arg-Asp-Lys(biscarboxymethyl)-Lys[(2-{2-[16-(tetrazol-5-yl)hexadecanoylamino]ethoxy}ethoxy)acetyl]-NH2] (Ac-EH[dF]RW[Orn]PPRD[Lys(CH2CO2H)2]K([AEEA-Palmitoyl(16-(5-tetrazolyl))])-NH2; lactam 1-6), the solubility is, setting by setting: (pH 5.5, Solubility Conc.) 22 µM (≈ 48.4 µg/mL); (pH 6.2, Solubility Conc.) 23 µM (≈ 50.6 µg/mL); (pH 6.8, Solubility Conc.) 43 µM (≈ 94.6 µg/mL); (pH 7, Solubility Conc.) 78 µM (≈ 172 µg/mL); (pH 7.1, Solubility Conc.) 95 µM (≈ 209 µg/mL); (pH 7.4, Solubility Conc.) 221 µM (≈ 486 µg/mL). Besides, the solubility is, setting by setting: (pH 7.6, Solubility Conc.) 202 µM (≈ 445 µg/mL); (pH 7.8, Solubility Conc.) 200 µM (≈ 440 µg/mL); (pH 7.9, Solubility Conc.) 217 µM (≈ 478 µg/mL).
Take `CC(=O)N[C@H]1CCCNC(=O)C[C@@H](C(=O)N2CCC[C@H]2C(=O)N2CCC[C@H]2C(=O)N[C@@H](Cc2c[nH]cn2)C(=O)N[C@@H](CCC(=O)O)C(=O)N[C@@H](CCCCN(CC(=O)O)CC(=O)O)C(=O)N[C@@H](CCCCNC(=O)COCCOCCNC(=O)CCCCCCCCCCCCCCCC(=O)O)C(N)=O)NC(=O)[C@H](Cc2c[nH]c3ccccc23)NC(=O)[C@H](CCCNC(=N)N)NC(=O)[C@@H](Cc2ccccc2)NC(=O)[C@H](Cc2c[nH]cn2)NC1=O` [Example 55, Ac-c[Orn-His-D-Phe-Arg-Trp-Asp]-Pro-Pro-His-Glu-Lys(biscarboxymethyl)-Lys({2-[2-(16-carboxyhexadecanoylamino)ethoxy]ethoxy}acetyl)-NH2] (Ac-[Orn]H[dF]RWDPPHE[Lys(CH2CO2H)2]K([AEEA-C17 diacid])-NH2; lactam 1-6): the solubility was 152 µM (≈ 328 µg/mL) (pH 6.3, Solubility Conc.); 236 µM (≈ 509 µg/mL) (pH 6.5, Solubility Conc.); 337 µM (≈ 727 µg/mL) (pH 6.6, Solubility Conc.); 436 µM (≈ 941 µg/mL) (pH 6.7, Solubility Conc.); 426 µM (≈ 919 µg/mL) (pH 6.9, Solubility Conc.); 414 µM (≈ 893 µg/mL) (pH 7.2, Solubility Conc.). In addition, the solubility reads like this: (pH 7.6, Solubility Conc.) 422 µM (≈ 910 µg/mL); (pH 7.7, Solubility Conc.) 435 µM (≈ 939 µg/mL); (pH 8, Solubility Conc.) 426 µM (≈ 919 µg/mL).
In the case of `CC(=O)N[C@H]1CCC(=O)NCCC[C@@H](C(=O)N2C[C@H](O)C[C@H]2C(=O)N2C[C@H](O)C[C@H]2C(=O)N[C@@H](CCCNC(=N)N)C(=O)N[C@@H](CC(=O)O)C(=O)N[C@@H](CCCCN(CC(=O)O)CC(=O)O)C(=O)N[C@@H](CCCCNC(=O)COCCOCCNC(=O)CCCCCCCCCCCCCCCc2nnn[nH]2)C(N)=O)NC(=O)[C@H](Cc2c[nH]c3ccccc23)NC(=O)[C@H](CCCNC(=N)N)NC(=O)[C@@H](Cc2ccccc2)NC(=O)[C@H](Cc2c[nH]cn2)NC1=O` [Example 56, Ac-c[Glu-His-D-Phe-Arg-Trp-Orn]-Hyp-Hyp-Arg-Asp-Lys(biscarboxymethyl)-Lys[(2-{2-[16-(tetrazol-5-yl)hexadecanoylamino]ethoxy}ethoxy)acetyl]-NH2] (Ac-EH[dF]RW[Orn][Hyp][Hyp]RD[Lys(CH2CO2H)2]K([AEEA-Palmitoyl(16-(5-tetrazolyl))])-NH2; lactam 1-6), the solubility by setting is: (pH 6.8, Solubility Conc.) 47 µM (≈ 105 µg/mL); (pH 7.1, Solubility Conc.) 79 µM (≈ 176 µg/mL); (pH 7.4, Solubility Conc.) 169 µM (≈ 377 µg/mL); (pH 7.5, Solubility Conc.) 395 µM (≈ 882 µg/mL); (pH 7.6, Solubility Conc.) 521 µM (≈ 1160 µg/mL); (pH 7.7, Solubility Conc.) 408 µM (≈ 911 µg/mL). For the same compound, the solubility is 524 µM (≈ 1170 µg/mL) (pH 7.8, Solubility Conc.) and 392 µM (≈ 875 µg/mL) (pH 8, Solubility Conc.).
`CC(=O)N[C@H]1CCSSC[C@@H](C(=O)N2CCC[C@H]2C(=O)N2CCC[C@H]2C(=O)N[C@@H](CCCCN)C(=O)N[C@@H](CCC(=O)O)C(=O)N[C@@H](CCCCN(CC(=O)O)CC(=O)O)C(=O)N[C@@H](CCCCNC(=O)COCCOCCNC(=O)CCCCCCCCCCCCCCCc2nnn[nH]2)C(N)=O)NC(=O)[C@H](Cc2c[nH]c3ccccc23)NC(=O)[C@H](CCCNC(=N)N)NC(=O)[C@@H](Cc2ccccc2)NC(=O)[C@H](CO)NC1=O` [Example 58, Ac-c[homoCys-Ser-D-Phe-Arg-Trp-Cys]-Pro-Pro-Lys-Glu-Lys(biscarboxymethyl)-Lys[(2-{2-[16-(tetrazol-5-yl)hexadecanoylamino]ethoxy}ethoxy)acetyl]-NH2] (Ac-[hCys]S[dF]RWCPPKE[Lys(CH2CO2H)2]K([AEEA-Palmitoyl(16-(5-tetrazolyl))])-NH2; disulfide 1-6): the solubility (pH 3, Solubility Conc.) turned out to be 539 µM (≈ 1150 µg/mL); the solubility (pH 3.9, Solubility Conc.) was 56 µM (≈ 119 µg/mL); the concentration in solution (pH 5.9, Solubility Conc.) (solubility) was 8 µM (≈ 17 µg/mL); the concentration in solution (pH 6.2, Solubility Conc.) (solubility) was 21 µM (≈ 44.7 µg/mL); the concentration in solution (pH 6.5, Solubility Conc.) (solubility) was 37 µM (≈ 78.8 µg/mL); the solubility (pH 6.6, Solubility Conc.) was 30 µM (≈ 63.9 µg/mL). Also, the solubility was 80 µM (≈ 170 µg/mL) (pH 7.5, Solubility Conc.); 385 µM (≈ 820 µg/mL) (pH 7.6, Solubility Conc.); 250 µM (≈ 532 µg/mL) (pH 8.6, Solubility Conc.); 365 µM (≈ 777 µg/mL) (pH 9, Solubility Conc.).
